Some test systems named below: NCI-H23; HCC 2998; OVCAR-4; NCI/ADR-RES; CAKI-1; SF-539; MDA-MB-231; HCT-15; EKVX; MDA-MB-435; ACHN; Malme-3M; HL-60; UACC-257; SR; TK-10; MDA-N; OVCAR-3; M14; SF-268.
What all share (test): NCI-60 cell line screen, 48 h

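How tested: cells in 96-well plates exposed to compound for 48 hours at five concentrations. GI50 is the concentration that inhibits growth by half.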 The source made the active and inactive calls. Rule as the data show it: active = GI50 up to about 1.1 µM and inactive = higher.

Consider `COP(=O)(OC)c1ccc(NCc2cc(O)ccc2O)cc1`, for which the GI50 is 34.1 µM (inactive) in the assay with NCI-H23; 23 µM (inactive) in the assay on HCC 2998; 27 µM (inactive) in the assay with OVCAR-4; 31 µM (inactive) with NCI/ADR-RES; 19.2 µM (inactive) with CAKI-1; 21.2 µM (inactive) with SF-539. Further, the GI50 is 26.9 µM (inactive) with MDA-MB-231; 21.3 µM in the assay on HCT-15; 23.1 µM (inactive) in the assay with EKVX; 26.8 µM (inactive) in the assay with MDA-MB-435; 18.3 µM (inactive) in the assay with ACHN; 18.9 µM (inactive) in the assay on Malme-3M. Further, the GI50 in the assay with HL-60 was 21.4 µM (inactive); in the assay with UACC-257, 22.2 µM (inactive); in the assay with SR, 14.3 µM (inactive); in the assay with TK-10 it was 23.4 µM (inactive); in the assay with MDA-N, 26.3 µM (inactive); with OVCAR-3 it was 6.34 µM (inactive). Moreover, the GI50 in the assay on M14 is 13.8 µM (inactive); with SF-268 it was 17.6 µM (inactive).

With `Cc1ccc([C@@H]2[C@@H](C(=O)c3ccccn3)[C@H](c3ccc(C)cc3)C[C@](O)(c3ccccn3)[C@H]2C(=O)c2ccccn2)cc1`, the GI50 was 18.8 µM (inactive) with NCI-H23; 7.35 µM (inactive) in the assay with HCC 2998; 4.98 µM (inactive) in the assay on OVCAR-4; 2.86 µM (inactive) with NCI/ADR-RES; 3.95 µM (inactive) with CAKI-1; 2.08 µM (inactive) with SF-539. Also, the GI50 with MDA-MB-231 was > 32 µM (inactive); in the assay on HCT-15, 1.77 µM; with EKVX, 0.728 µM (active); in the assay on MDA-MB-435, 8.22 µM (inactive); in the assay on ACHN it was 2.51 µM (inactive); with Malme-3M, 8.79 µM (inactive). The GI50 in the assay on HL-60 was 2.52 µM (inactive); with UACC-257, 8.04 µM (inactive); in the assay on SR, 0.495 µM (active); in the assay on TK-10, 6.05 µM (inactive); in the assay with MDA-N it was 3.69 µM (inactive); in the assay on OVCAR-3 it was 7.8 µM (inactive). The GI50 in the assay on M14 was 1.31 µM (inactive); in the assay with SF-268, 0.946 µM (active).

In the case of `C[N+]1(C)C/C(=C\C=C\c2ccccc2)C(=O)/C(=C/C=C/c2ccccc2)C1`, the GI50 in the assay on NCI-H23 is 9.71 µM (inactive); with HCC 2998, 8.55 µM (inactive); with OVCAR-4 it was 42.7 µM (inactive); in the assay on NCI/ADR-RES, > 100 µM (inactive); in the assay on CAKI-1, 65 µM (inactive); with SF-539, 7.55 µM (inactive). For the same compound, the GI50 with MDA-MB-231 was 10.4 µM (inactive); with HCT-15 it was 40.2 µM; with EKVX, 45.1 µM (inactive); with MDA-MB-435, 4.28 µM (inactive); in the assay with ACHN it was 49.7 µM (inactive); in the assay with Malme-3M, 16 µM (inactive). Moreover, the GI50 is 1.02 µM (active) in the assay with HL-60; 8.39 µM (inactive) in the assay on UACC-257; 3.1 µM (inactive) in the assay with SR; 33.4 µM (inactive) in the assay with TK-10; 4.48 µM (inactive) in the assay with MDA-N; 8.61 µM (inactive) with OVCAR-3. The GI50 with M14 is 16.3 µM (inactive); in the assay on SF-268 it was 4.97 µM (inactive).

Consider `CC1/C=C/C=C/CC/C=C/C=C/C=C/C=C/C(OC2OC(C)C(O)C(N)C2O)CC2OC(CC(O)C(O)CCC(O)CC(O)CC(O)CC(=O)OC(C)C(C)C1O)CC(O)C2C(=O)O` (stereo not given), for which the GI50 in the assay on NCI-H23 is 18.1 µM (inactive); in the assay with HCC 2998, 14.8 µM (inactive); with OVCAR-4, 15.2 µM (inactive); in the assay with NCI/ADR-RES, 21.3 µM (inactive); in the assay on CAKI-1, 17.5 µM (inactive); in the assay on SF-539 it was 16.1 µM (inactive). Moreover, the GI50 in the assay with MDA-MB-231 was 17.6 µM (inactive); in the assay on HCT-15, 27.3 µM; in the assay with EKVX it was 16.7 µM (inactive); in the assay on MDA-MB-435, 17.6 µM (inactive); in the assay on ACHN it was 17.7 µM (inactive); in the assay with Malme-3M, 17.9 µM (inactive). For the same compound, the GI50 with HL-60 was 23.9 µM (inactive); in the assay with UACC-257, 17 µM (inactive); in the assay on SR, 16.9 µM (inactive); with TK-10 it was 17.5 µM (inactive); in the assay with MDA-N it was 17.3 µM (inactive); in the assay with OVCAR-3 it was 20 µM (inactive). For the same compound, the GI50 with M14 is 19.7 µM (inactive); in the assay with SF-268 it was 24.9 µM (inactive).

Turning to `COc1cc(C=O)cc(/C=N/c2ccccn2)c1O`, the GI50 with NCI-H23 is > 100 µM (inactive); in the assay on HCC 2998, 46.1 µM (inactive); with OVCAR-4 it was > 100 µM (inactive); with NCI/ADR-RES it was 10.8 µM (inactive); in the assay with CAKI-1, 2.94 µM (inactive); in the assay on SF-539, 3.01 µM (inactive). Besides, the GI50 in the assay on MDA-MB-231 is 9.02 µM (inactive); in the assay on HCT-15, 29 µM; in the assay on EKVX, 23.4 µM (inactive); in the assay on MDA-MB-435 it was 9.29 µM (inactive); with ACHN, 2.34 µM (inactive); in the assay with Malme-3M it was 2.47 µM (inactive). For the same compound, the GI50 in the assay on HL-60 was 33.4 µM (inactive); in the assay with UACC-257, 8.59 µM (inactive); in the assay on SR it was 2.18 µM (inactive); with TK-10, 79.4 µM (inactive); with MDA-N it was 7.23 µM (inactive); in the assay on OVCAR-3 it was 19.8 µM (inactive). The GI50 with M14 was 6.87 µM (inactive); in the assay with SF-268, 3.37 µM (inactive).

Take `CCOC(=O)c1nc2cc(C(F)(F)F)ccc2nc1Nc1ccc(Cl)c(Cl)c1`: the GI50 was > 100 µM (inactive) in the assay with NCI-H23; 69.3 µM (inactive) in the assay on HCC 2998; 97.5 µM (inactive) in the assay with OVCAR-4; > 100 µM (inactive) with NCI/ADR-RES; > 100 µM (inactive) in the assay on CAKI-1; > 100 µM (inactive) with SF-539. The GI50 with MDA-MB-231 is > 100 µM (inactive); in the assay with HCT-15, over 100 µM; with EKVX, > 100 µM (inactive); with MDA-MB-435, 62.7 µM (inactive); with ACHN, > 100 µM (inactive); in the assay on Malme-3M it was > 100 µM (inactive). In addition, the GI50 in the assay on HL-60 was 31.8 µM (inactive); in the assay on UACC-257, > 100 µM (inactive); in the assay with SR, 49.9 µM (inactive); with TK-10, > 100 µM (inactive); with MDA-N it was > 100 µM (inactive); with OVCAR-3, > 100 µM (inactive). Moreover, the GI50 in the assay with M14 and with SF-268 was > 100 µM (inactive) in each case.

Turning to `O=C(NC(=O)c1ccccc1[N+](=O)[O-])Nc1ccc(Oc2ncc(Br)cn2)c(Cl)c1`, the GI50 with NCI-H23 was 0.0389 µM (active); in the assay on HCC 2998, 0.0875 µM (active); in the assay on OVCAR-4, 0.0284 µM (active); in the assay with NCI/ADR-RES, 0.0198 µM (active); with CAKI-1, 0.0194 µM (active); in the assay on SF-539, 0.0203 µM (active). For the same compound, the GI50 was 0.0469 µM (active) with MDA-MB-231; 0.0441 µM with HCT-15; 0.0348 µM (active) in the assay on EKVX; 0.00802 µM (active) in the assay on MDA-MB-435; 0.0508 µM (active) in the assay on ACHN; 0.0138 µM (active) in the assay on Malme-3M. Besides, the GI50 is 0.00383 µM (active) in the assay on HL-60; 0.0237 µM (active) with UACC-257; 0.0296 µM (active) in the assay with SR; 0.0362 µM (active) in the assay with TK-10; 0.00857 µM (active) in the assay with MDA-N; 0.0252 µM (active) in the assay on OVCAR-3. Also, the GI50 with M14 is < 0.016 µM (active); with SF-268 it was 0.0478 µM (active).

On to `CCOC(=O)c1ccc(C(=O)/C(C(C)=O)=C2\CCCN2C)n1C`, for which the GI50 in the assay with NCI-H23 was 90.6 µM (inactive); in the assay on HCC 2998 it was > 100 µM (inactive); in the assay with OVCAR-4 it was 71.1 µM (inactive); in the assay on NCI/ADR-RES it was 83.8 µM (inactive); in the assay on CAKI-1 it was > 100 µM (inactive); in the assay with SF-539, 0.303 µM (active). Moreover, the GI50 with MDA-MB-231 is 27.5 µM (inactive); in the assay on HCT-15 it was 68.7 µM; in the assay on EKVX it was 18.2 µM (inactive); in the assay with MDA-MB-435, > 100 µM (inactive); in the assay on ACHN it was > 100 µM (inactive); in the assay with Malme-3M it was > 100 µM (inactive). The GI50 in the assay with HL-60 is 18.5 µM (inactive); in the assay on UACC-257 it was > 100 µM (inactive); with SR it was 28.9 µM (inactive); in the assay with TK-10, > 100 µM (inactive); in the assay with MDA-N, 86.3 µM (inactive); in the assay on OVCAR-3, 99.8 µM (inactive). The GI50 with M14 and with SF-268 was > 100 µM (inactive) throughout.

Turning to `Cn1c(-c2ccc[se]2)ccc1-c1ccc(CO)[se]1`, the GI50 with NCI-H23 was 24.9 µM (inactive); in the assay on HCC 2998, 0.792 µM (active); in the assay with OVCAR-4, 0.0392 µM (active); with NCI/ADR-RES, 9.48 µM (inactive); in the assay with CAKI-1, < 0.01 µM (active); in the assay with SF-539, 26.9 µM (inactive). The GI50 in the assay with MDA-MB-231 was 32.6 µM (inactive); in the assay with HCT-15, 18.3 µM; in the assay with EKVX it was 32.7 µM (inactive); in the assay with MDA-MB-435, 17.3 µM (inactive); in the assay on ACHN it was 23.2 µM (inactive); with Malme-3M, 10.2 µM (inactive). The GI50 was 10 µM (inactive) in the assay with HL-60; 0.0461 µM (active) in the assay with UACC-257; 10.4 µM (inactive) in the assay on SR; 0.0129 µM (active) with TK-10; 18 µM (inactive) with MDA-N; 0.0348 µM (active) with OVCAR-3. Also, the GI50 with M14 was > 66.2 µM (inactive); in the assay on SF-268, 44 µM (inactive).

For `CC12OC(=O)[C@@]3(O)CCC4C(C[C@H]5O[C@]56CC=CC(=O)[C@]46C)C45OC[C@H]6C(=O)O[C@@H]1C[C@@]6(C)[C@H](C4=O)C23O5` (stereo not given in full), the GI50 in the assay with NCI-H23 was 0.746 µM (active); in the assay on HCC 2998, 3.12 µM (inactive); with OVCAR-4 it was 2.01 µM (inactive); in the assay with NCI/ADR-RES, 8.51 µM (inactive); in the assay with CAKI-1 it was 2.64 µM (inactive); in the assay with SF-539 it was 0.252 µM (active). Moreover, the GI50 with MDA-MB-231 was 0.885 µM (active); in the assay with HCT-15 it was 0.977 µM; in the assay on EKVX it was 3.28 µM (inactive); in the assay with MDA-MB-435, 1.42 µM (inactive); in the assay with ACHN, 1.84 µM (inactive); in the assay on Malme-3M, 1.36 µM (inactive). For the same compound, the GI50 in the assay on HL-60 was 0.121 µM (active); with UACC-257 it was 1.32 µM (inactive); in the assay with SR, 0.392 µM (active); in the assay on TK-10 it was 1 µM (active); in the assay with MDA-N, 3.4 µM (inactive); in the assay on OVCAR-3, 0.676 µM (active). In addition, the GI50 in the assay with M14 is 1.57 µM (inactive); in the assay on SF-268, 0.309 µM (active).
